Measured values as given in patent publication US10226530B2, “Methods for treating and/or limiting development of diabetes” (Biocrine AB, priority 2011, dated 2019).
Entries after “also recorded” stand apart in the source; their conditions may differ.

Columns and labels:
β cell CaV channels [1] = assay: perforated whole-cell patch-clamp of Ca2+ currents in RINm5F cells; assay type: cell-based, rat
Procedure: (§1) Islets of Langerhans were isolated from adult male and female mice and dispersed into single ([…]. RINm5F cells at about 70% confluency were trypsinized. The resultant suspension of cells was seeded into Petri dishes or 12-well plates. The cells were cultivated in RPMI 1640 medium supplemented with 10% fetal bovine serum, 2 mM L-glutamine, and 100 U/100 […] penicillin/streptomycin (Invitrogen, Carlsbad, Calif.) and maintained at 37° C. in a humidified 5% CO2 incubator. They were grown overnight and then subjected to siRNA transfection. For patch-clamp analysis, cells underwent overnight treatment with ApoCIII, the PKA inhibitor H-89 (Calbiochem, La Jolla, Calif.), the PKC inhibitor calphostin C (Calbiochem), the Src kinase inhibitor PP2 (Calbiochem) and the CaV1 channel blocker nimodipine (Calbiochem) in RPMI medium at final concentrations of 20 μg/ml, 0.5 μM, 0.1 μM, 0.1 μM and 5 μM, respectively. ApoCIII was dissolved in 0.1% triflouroacetic acid (TFA) to make a stock solution of 1 mg/ml, whereas H-89, calphostin C, PP2 and nimodipine were dissolved in dimethyl sulfoxide (DMSO) to form stock solutions of 5 mM, 1 mM, 1 mM and 10 mM, respectively. 0.002% TFA and/or 0.03% DMSO were used as vehicle controls.
Two pairs of 21-mer siRNA duplexes targeting the rat β1 integrin (β1 integrin siRNA #1, ID127971 and β1 integrin siRNA #2, ID127972) were designed and chemically synthesized by Applied Biosystems/Ambion (Austin, Tex.). Their sequences were subjected to BLAST search to ensure their specificity. Silencer® Select Negative Control siRNA (4390843), not targeting any gene product, and Silencer® Select GAPDH Positive Control siRNA (4390849), efficiently silencing GAPDH in human, mouse, and rat cells, were purchased from Applied Biosystems/Ambion (Austin, Tex.). RINm5F cells were reversely transfected with Lipofectamine™ RNAiMAX™. Briefly, negative control siRNA, β1 integrin siRNA #1 or β1 integrin siRNA #2 was mixed with Lipofectamine™ RNAiMAX™ followed by 20-min incubation at room temperature. Subsequently, cells were added to the siRNA/Lipofectamine™ RNAiMAX mixtures followed by gentle agitation and kept at 37° C. in a humidified 5% CO2 incubator. After 72 h, the transfected cells were grown to about 70% confluency and subjected to immunoblot assay or different treatments.
(§2) Mouse islet cells and RINm5F cells following different treatments were subjected to single channel and whole-cell patch-clamp measurements. Cell-attached and perforated whole-cell patch-clamp configurations were employed. Electrodes were made from borosilicate glass capillaries, fire-polished and coated with Sylgard close to their tips. Some of them were filled with a solution containing (in mM) 110 BaCl2, 10 TEA-Cl, and 5 HEPES (pH 7.4 with Ba(OH)2) for single channel measurements. Others were filled with a solution composed of (in mM) 76 Cs2SO4, 1 MgCl2, 10 KCl, 10 NaCl, and 5 HEPES (pH 7.35 with CsOH), as well as amphotericin B (0.24 mg/ml) for whole-cell current recordings. Electrode resistance ranged between 4 and 6 MΩ when they were filled with electrode solutions and immersed in bath solutions. The electrode offset potential was corrected in bath solutions prior to gigaseal formation. Single-channel recordings were performed with cells bathed in a depolarizing external recording solution, containing (in mM) 125 KCl, 30 KOH, 10 EGTA, 2 CaCl2, 1 MgCl2, and 5 HEPES-KOH (pH 7.15). This solution was used to bring the intracellular potential to 0 mV. For perforated whole-cell current measurements, the cells were bathed in a solution containing (in mM) 138 NaCl, 5.6 KCl, 1.2 MgCl2, 10 CaCl2, 5 HEPES (pH 7.4). Single channel and whole-cell currents were recorded with an Axopatch 200B amplifier (Molecular Devices, Foster City, Calif.) and an EPC-9 patch clamp amplifier (HEKA Elektronik, Lambrecht/Pfalz, Germany), respectively, at room temperature (about 22° C.). […]

CaV1.3 = assay: immunoblot of CaV1.3 subunit in RINm5F cell homogenates; assay type: cell-based, rat; settings: overnight ApoCIII; P>0.05
Procedure: as §1, with “ApoCIII was dissolved in 0.1% triflouroacetic acid (TFA) to make a stock solution of 1 mg/ml, whereas H-89, calphostin C, PP2 and nimodipine were dissolved in dimethyl sulfoxide (DMSO) to form stock solutions of 5 mM, 1 mM, 1 mM and 10 mM, respectively. 0.002% TFA and/or 0.03% DMSO were used as vehicle controls.” left out
(§3) RINm5F cells following different treatments were lysed in a lysis buffer (pH 7.5) consisting of 50 mM HEPES, 150 mM NaCl, 1 mM EGTA, 1 mM EDTA, 10% glycerol, 1% triton X-100, 1 mM PMSF and a protease inhibitor cocktail (Roche Diagnostics, Mannheim, Germany). […] The protein concentration of the resulting samples was determined with Bio-Rad protein assay reagent (Bio-Rad, Hercules, Calif.). […]

CaV1 channels [2] = assay: cell-attached single channel patch-clamp of unitary CaV1 channel currents in mouse islet β cells; assay type: cell-based
Procedure: as §1
as §2, with “For perforated whole-cell current measurements, the cells were bathed in a solution containing (in mM) 138 NaCl, 5.6 KCl, 1.2 MgCl2, 10 CaCl2, 5 HEPES (pH 7.4).” left out

CaV1 channels [3] = assay: cell-attached single channel patch-clamp of unitary CaV1 channel currents in RINm5F cells; assay type: cell-based, rat; settings: ApoCIII 20 μg/ml overnight versus vehicle solution
Procedure: as §1
as §2, with “For perforated whole-cell current measurements, the cells were bathed in a solution containing (in mM) 138 NaCl, 5.6 KCl, 1.2 MgCl2, 10 CaCl2, 5 HEPES (pH 7.4).” left out

CaV1.2 = assay: immunoblot of CaV1.2 subunit in RINm5F cell homogenates; assay type: cell-based, rat; settings: overnight ApoCIII; P>0.05
Procedure: as §1, with “ApoCIII was dissolved in 0.1% triflouroacetic acid (TFA) to make a stock solution of 1 mg/ml, whereas H-89, calphostin C, PP2 and nimodipine were dissolved in dimethyl sulfoxide (DMSO) to form stock solutions of 5 mM, 1 mM, 1 mM and 10 mM, respectively. 0.002% TFA and/or 0.03% DMSO were used as vehicle controls.” left out
as §3

β cell CaV channels [4] = settings: mouse islet β cell; Juntti-Berggren et al., 2004; cited from earlier work
[5] = H-89 0.5 μM, ApoCIII 20 μg/ml, overnight
[6] = ApoCIII 20 μg/ml overnight versus control vehicle

Q: With `O=S(=O)(NCCNC/C=C/c1ccc(Br)cc1)c1cccc2cnccc12` [H-89] as the compound, how does the “Ca2+ current density, cotreatment of ApoCIII and H-89 versus cells treated with ApoCIII” value (β cell CaV channels [1]; [5]) read?
A: did not significantly differ

Q: And the “Ca2+ current density, cotreatment of ApoCIII and H-89 versus control cells” value (β cell CaV channels [1]; [5])?
A: did not significantly differ

Q: And the “Ca2+ current densities under basal conditions, H-89 versus control” value (β cell CaV channels [1]; H-89 0.5 μM, absence of ApoCIII)?
A: did not significantly influence

Q: Which “density of whole-cell Ca2+ currents, ApoCIII group versus control group” value (β cell CaV channels [1]; no voltage range printed, H-89/PP2 experiment) does the source give for apolipoprotein CIII [ApoCIII] here?
A: Significantly higher

Q: And the “Ca2+ current density, NC siRNA/apoCIII versus NC siRNA/Control” value (β cell CaV channels [1]; voltage range 10-40 mV, negative control siRNA-transfected cells)?
A: significant increase

Q: What about the “whole-cell Ca2+ current density, ApoCIII-treated cells versus vehicle control cells” value (β cell CaV channels [1]; voltage range 10 to 50 mV, ApoCIII 20 μg/ml overnight) of the same compound?
A: significantly higher; also recorded: increased significantly; also recorded: significantly elevated; also recorded: significantly increased

Q: And the “whole-cell Ca2+ current density, ApoCIII group versus control group” value (β cell CaV channels [1]; voltage range from 10 to 30 mV, ApoCIII 20 μg/ml overnight)?
A: significantly higher

Q: And the “relative abundance of CaV1.3 subunits, ApoCIII incubation versus vehicle incubation” value (CaV1.3)?
A: no significant difference

Q: What about the “mean closed time of unitary CaV1 channels” value (CaV1 channels [2]; ApoCIII 20 μg/ml overnight versus control patches) of the same compound?
A: significantly shorter

Q: And the “mean open time of unitary CaV1 channels” value (CaV1 channels [2]; [6])?
A: significantly greater

Q: And the “open probability of unitary CaV1 channels” value (CaV1 channels [2]; [6])?
A: significantly greater

Q: What about the “average number of unitary CaV1 channels” value (CaV1 channels [2]; ApoCIII 20 μg/ml overnight versus control vehicle, plasma membrane patches) of the same compound?
A: significantly greater

Q: And the “channel number of CaV1 channels” value (CaV1 channels [3])?
A: significantly increased

Q: What about the “mean closed time of CaV1 channels” value (CaV1 channels [3]) of the same compound?
A: shortened

Q: And the “mean open time of CaV1 channels” value (CaV1 channels [3])?
A: prolonged

Q: What about the “open probability of CaV1 channels” value (CaV1 channels [3]) of the same compound?
A: elevated

Q: And the “relative abundance of CaV1.2 subunits, ApoCIII incubation versus vehicle incubation” value (CaV1.2)?
A: no significant difference

Q: What about the “whole-cell Ca2+ currents after ApoCIII incubation” value (β cell CaV channels [4]) of the same compound?
A: significantly enhances

Q: With `CC(C)(C)n1nc(-c2ccc(Cl)cc2)c2c(N)ncnc21` [PP2] as the compound, how does the “difference in Ca2+ current density to vehicle: ApoCIII/PP2-cotreated cells compared with that of ApoCIII-treated cells” value (β cell CaV channels [1]; PP2 0.1 μM) read?
A: less prominent

Q: What about the “Ca2+ current densities, cells incubated with PP2 versus vehicle-treated cells” value (β cell CaV channels [1]; PP2 0.1 μM, absence of ApoCIII) of the same compound?
A: similar

Q: What about the “Ca2+ currents, cotreatment of ApoCIII and PP2 versus vehicle control cells” value (β cell CaV channels [1]; voltage range 20-40 mV, PP2 0.1 μM) of the same compound?
A: significantly larger

Q: Which “Ca2+ current density, ApoCIII/CalpC-cotreated cells versus ApoCIII-treated cells” value (β cell CaV channels [1]; calphostin C 0.1 μM) does the source give for calphostin C [CalpC] here?
A: no difference

Q: What about the “Ca2+ current density, CalpC-treated cells versus control vehicle” value (β cell CaV channels [1]; calphostin C 0.1 μM, absence of ApoCIII) of the same compound?
A: similar

Q: What about the “mean Ca2+ current density, ApoCIII/CalpC versus vehicle control cells” value (β cell CaV channels [1]; voltage range from 20 to 50 mV, calphostin C 0.1 μM) of the same compound?
A: increased significantly
